Data on two compounds can be found in US12534439B2, “Xanthohumol derivatives and methods for making and using” (Oregon State University, priority 2021, dated 2026).

Where two headings read alike, the source gives them in different places.

Series [1] deals with HFD-fed C57BL/6J mice. Nature of the series: HFD feeding study: body weight, glucose tolerance test, plasma metabolic parameters. The class given is in vivo. The note with it: for Final body weight: 11 weeks of HFD ± test compound; for Weight gain over the feeding period versus control HFD-fed mice: XP 30, XN 60 mg/kg body weight/day in HFD; for Glucose tolerance test (GTT) versus control: after 4 weeks of feeding, 6 hours fasting, 1.5 g/kg D-glucose i.p.; for Initial body weight: male mice, HFD ± test compound; for IL-6 / Insulin / MCP1 / PCSK9: plasma. The protocol: Animal Studies. All animal experiments were performed in accordance with institutional and National Health and Medical Research Council guidelines. The experimental protocol was approved by the Institutional Animal Care and Use Committee at Oregon State University and the studies were carried out in accordance with the approved protocol. Nine-week-old wildtype male C57BL/6J mice were obtained from Jackson Laboratory (Bar Harbor, ME, USA). Mice were single-housed in ventilated cages under a 12-12 h light-dark cycle and fed a HFD (Dyets Inc., Bethlehem, PA, USA) containing 60, 20, and 20% total calories from fat, carbohydrate, and protein, respectively. XN (99% purity, Hopsteiner Inc., New York, NY, USA) and XP (99% purity) were mixed into the diet at a concentration of 0.066% for XN and 0.033% for XP to reach respective doses of 60 mg/kg body weight/day and 30 mg/kg body weight/day. Studies included eight HFD-fed mice, eight XP-treated mice, and four XN-treated mice; food intake and body weights were recorded weekly. At week 4, glucose tolerance was tested after 6 hours fasting. Following intraperitoneal bolus injection of 1.5 g/kg of D-glucose, blood glucose levels were measured at 0, 15, 30, 60, and 120 minures using a One Touch UltraMini glucometer (LifeScan Inc., Milpitas, CA, USA). At the end of 11 weeks of feeding, mice were euthanized, and blood, liver, BAT, epididymal WAT, and cortex samples were collected for analyses.
(§1) Tris (pH=7.8) per gram of tissue. The homogenates were centrifuged at 10 000 g for 15 minutes at 4° C., and the supernatants were tested for ALT and AST activity using colorimetric assay kits purchased from Cayman Chemical (Ann Arbor, MI, USA). Triglycerides and total cholesterol were analyzed with commercially available kits (Cayman Chemical, Ann Arbor, MI, USA). Plasma glucose at week 11 was measured with a colorimetric assay, and plasma insulin, MCP-1, IL-6, and PCSK9 were analyzed by ELISA kits purchased from Abcam (Cambridge, UK).

The conditions of series [2]: general statement on XN; cited from earlier work.
Series [3] can be described thus: Quantification of XP and XN in plasma and cortex by UPLC-MS with or without glucuronidase digestion. The class given is in vivo, mice. The note with it: for concentration at 11 weeks: C57BL/6J, mouse, without glucuronidase digestion, daily oral XP 30, XN 60 mg/kg body weight, mean ± SEM. As for the experimental part:
Quantification of XP and XN. For plasma extractions, ascorbic acid (5 μL, 10% m/m water, Sigma-Aldrich, St Louis, MO, USA) was added to 40 μL of plasma. For tissue extractions, 20 mg of cortex was extracted with 200 μL of 50% methanol in water and 10 μL of ascorbic acid (10% m/m water). Samples were incubated with or without 10 μL of glucuronidase (20 mg/mL, Sigma-Aldrich, St Louis, MO, USA) for 3 hours at 37° C. The samples were extracted with 200 μL of acetonitrile containing 100 ng/mL of [13C3]-XN. The supernatant was transferred to a new tube and vacuum-dried, and the pellet was reconstituted in 100 μL of 50% methanol in water. UPLC-MS was performed using a hybrid triple quadrupole linear ion trap mass spectrometer (4000 QTRAP, AB SCIEX, Toronto, Canada). The elution profile was set as follows: 5% B from 0 to 0.5 min, 5 to 100% B from 0.5 to 3 minutes, 1 minute hold at 100% B, followed by re-equilibration of the HPLC column at 5% B for 2 minutes. Selected reaction monitoring transitions used for quantification were m/z 353.1>119.1 for XN, m/z 379.3>321.3 for XP, and m/z 356.1>120.1 for the [13C3]-XN internal standard.
For plasma extractions, ascorbic acid (5 μL, 10% m/m water, Sigma Aldrich, St Louis, MO, USA) was added to 40 μL of plasma. Samples were incubated with or without 10 μL glucuronidase (20 mg/mL, Sigma Aldrich, St Louis, MO, USA) for 3 hr at 37° C. Samples were extracted with 200 μL of acetonitrile containing 100 ng/mL [^13C3]—XN^1. The supernatant was transferred to a new tube, vacuum-dried and the pellet was reconstituted in 100 μL of 50% methanol in water. UPLC-MS was performed using a hybrid triple quadrupole linear ion trap mass spectrometer (4000 QTRAP, AB SCIEX, Toronto, Canada) as previously reported with some modifications. The elution profile was set as follows: 5% solvent B from 0 to 0.5 minute, 5% to 100% B from 0.5-3 minutes, 1 minute hold at 100% B followed by re-equilibration of the HPLC column at 5% B for 2 minutes. Selected Reaction Monitoring transitions used for quantification were m/z 353.1>119.1 for XN, m/z 379.3>321.3 for XP and m/z 356.1>120.1 for [^13C3]—XN internal standard. XP and XN concentrations were calculated by the external calibration method using calibration curves constructed from pure XP and XN standards.

Series [4] relates to HFD-fed C57BL/6J mice. Kind of series: AST and ALT enzymatic activities in liver homogenates. The series is classed as in vivo. To be noted: for ALT / AST: 11 weeks, mean ± SEM. The protocol:
Measure of Metabolic Parameters and Liver Enzymes. ALT and AST enzymatic activities and liver samples (n=4-8 per group) were homogenized in 10 mL of 100 mM
as §1

[5] abbreviates: cortex, read-out: CORTEX concentration, Non-glucuronidated.
The mark [6] stands for this setting: plasma, read-out: PLASMA concentration, Non-glucuronidated.

As to `COc1cc(O)c(CC=C(C)C)c(O)c1C(=O)/C=C/c1ccc(O)cc1` [XN, xanthohumol], in the series with HFD-fed C57BL/6J mice [1] (11 weeks), the “Plasma TGs versus control” value is on record as “increase” and the “Plasma concentrations of PCSK9 versus control” value is listed as “not affected”. In the series with HFD-fed C57BL/6J mice [1] (mean ± SEM), the Final body weight worked out at 44.25 ± 1.97 g and the Initial body weight was determined as 26.37 ± 0.22 g. In the series on HFD-fed C57BL/6J mice [1] (11 weeks, mean ± SEM), this compound came in with a Fasting glucose of 142.67 ± 6.29 mg/dL, an HOMA-IR of 26.76 ± 13.47, a Plasma cholesterol of 170.88 ± 6.76 mg/dL and an IL-6 of 5.03 ± 3.3 pg/mL. In the series on HFD-fed C57BL/6J mice [1] (11 weeks, mean ± SEM), this compound gave an Insulin of 71.17 ± 34.38 μU/mL, an MCP1 of 57.34 ± 15.74 pg/mL and a PCSK9 of 215 ± 35.12 ng/mL. In addition, in the series with HFD-fed C57BL/6J mice [1], the “Weight gain over the feeding period versus control HFD-fed mice” value is reported as “no change in weight” and the “Glucose tolerance test (GTT) versus control” value is “no effect on glucose clearance”. Moreover, in series [2], the “Metabolism” value is “subject to extensive phase 1 and phase 2 metabolism”. In series [3] (setting [5]), the concentration at 11 weeks is 59.7 ± 16.8 ng/g. Also, the concentration at 11 weeks in series [3] (setting [6]) is 13.2 ± 3.07 ng/mL. Further, in the series with HFD-fed C57BL/6J mice [4], the “AST and ALT test results versus control” value was “did not change substantially”; the ALT stood at 0.22 ± 0.06 U/mL; the AST was found to be 0.16 ± 0.03 U/mL.
On to `COc1cc(O)c(CC=C(C)C)c(O)c1-c1cc(-c2ccc(O)cc2)n(C)n1` [XP, 4-(5-(4-hydroxyphenyl)-1-methyl-1H-pyrazol-3-yl)-5-methoxy-2-(3-methylbut-2-en-1-yl)benzene-1,3-diol], for which, in the series with HFD-fed C57BL/6J mice [1] (11 weeks), the “IL-6 plasma level versus control” value is reported as “not significantly different”; the “MCP-1/CCL2 plasma levels versus control” value was “not decreased”; the “Plasma concentrations of PCSK9 versus control” value was “not affected”; the “Triglycerides (TG) and total cholesterol concentrations in plasma versus control” value is “no changes”. Also, in the series with HFD-fed C57BL/6J mice [1] (mean ± SEM), the Final body weight was 37.87 ± 1.72 g and the Initial body weight is reported as 23.66 ± 0.70 g. Further, in the series on HFD-fed C57BL/6J mice [1] (11 weeks, mean ± SEM), the Fasting glucose is listed as 128.98 ± 7.18 mg/dL, the “Plasma TG” value turned out to be 81.81 ± 4.33 mg/dL, the Plasma cholesterol stood at 160.47 ± 4.73 mg/dL and the IL-6 was 5.78 ± 2.04 pg/mL. Further, in the series on HFD-fed C57BL/6J mice [1] (11 weeks, mean ± SEM), the Insulin is given as 34.36 ± 3.73 μU/mL, the MCP1 was 45.00 ± 4.68 pg/mL and the PCSK9 is recorded as 217.166 ± 26.88 ng/mL. In addition, in the series with HFD-fed C57BL/6J mice [1], the “Weight gain over the feeding period versus control HFD-fed mice” value is recorded as “gained significantly less weight” and the “Glucose tolerance test (GTT) versus control” value is on record as “improved glucose tolerance”. In addition, the “Decrease of HOMA-IR (insulin resistance score)” value in the series on HFD-fed C57BL/6J mice [1] (after 11 weeks of feeding, versus control) was 77.9%. Further, the Fasting glucose a in the series with HFD-fed C57BL/6J mice [1] (measured at 4 weeks, mean ± SEM) was 143.62 ± 7.54 mg/dL. Also, the concentration at 11 weeks in series [3] (setting [5]) turned out to be 40.1 ± 2.8 ng/g. The concentration at 11 weeks in series [3] (setting [6]) stood at 43.5 ± 3.54 ng/mL. Moreover, the “Phase 1 metabolism” value in series [3] (plasma of treated mice) is listed as “resistant to phase 1 metabolism”. In addition, the “Metabolites detected in plasma” value in series [3] (plasma of treated mice, mass spectrometric analysis) is “XP-glucuronide was the only metabolite”. In addition, in the series with HFD-fed C57BL/6J mice [4], the “AST and ALT test results versus control” value is on record as “did not change substantially”; the ALT came to 0.38 ± 0.07 U/mL; the AST is on record as 0.30 ± 0.06 U/mL. For the same compound, the “Decrease in liver enzymes (AST, ALT)” value with HFD-fed C57BL/6J mice [4] (versus control, not significant) was 30%.
